According to US8802597B2, “Herbicidal pyrimidines” (E I du Pont de Nemours and Company, priority 2003, dated 2014):
Where two headings read alike, the source gives them in different places.

Columns and labels:
Test in all cases: Test C pre/postemergence
Assay type in all cases: in vivo
[1] = tested on: kochia (Kochia scoparia); details: Bassia scoparia; for pest or weed control at 31 g/ha: 31 g ai/ha; for pest or weed control at 62 g/ha: 62 g ai/ha; for pest or weed control at 125 g/ha: 125 g ai/ha; for pest or weed control at 250 g/ha: 250 g ai/ha
In short: (§1)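 Injury scored visually 12–14 days after application on 0–100 scale (100 = complete control), relative to controls. Compounds, formulated with surfactant in non-phytotoxic solvent, applied to soil at planting (pre) or to 1- to 4-leaf plants 2–18 cm tall (post) in greenhouse.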

[2] = tested on: lambsquarters (Chenopodium album); details: Chenopodium album; for pest or weed control at 31 g/ha: 31 g ai/ha; for pest or weed control at 62 g/ha: 62 g ai/ha; for pest or weed control at 125 g/ha: 125 g ai/ha; for pest or weed control at 250 g/ha: 250 g ai/ha
In short: as §1

[3] = tested on: giant foxtail (Setaria faberii); details: Setaria faberi; for pest or weed control at 125 g/ha: 125 g ai/ha; for pest or weed control at 31 g/ha: 31 g ai/ha; for pest or weed control at 62 g/ha: 62 g ai/ha; for pest or weed control at 250 g/ha: 250 g ai/ha
In short: as §1

[4] = tested on: soybean (Glycine max); details: Glycine max; for plant injury at 31 g/ha: 31 g ai/ha; for plant injury at 62 g/ha: 62 g ai/ha; for plant injury at 125 g/ha: 125 g ai/ha; for plant injury at 250 g/ha: 250 g ai/ha
In short: as §1

[5] = tested on: Surinam grass (Brachiaria decumbens); details: Urochloa decumbens; for pest or weed control at 125 g/ha: 125 g ai/ha; for pest or weed control at 31 g/ha: 31 g ai/ha; for pest or weed control at 62 g/ha: 62 g ai/ha; for pest or weed control at 250 g/ha: 250 g ai/ha
In short: as §1

[6] = tested on: johnsongrass (Sorghum halepense); details: Sorghum halepense, post-emergence, Postemergence
In short: as §1

[7] = post-emergence, Postemergence, scale 0 to 100 (0 no effect, 100 complete control), read-out: Kochia plant response rating
[8] = pre-emergence, Preemergence, scale 0 to 100, 0 no effect, 100 complete control, read-out: Plant response rating, Kochia
[9] = pre-emergence, Preemergence, scale 0 to 100, read-out: Plant response rating, Kochia
[10] = post-emergence, Postemergence, scale 0 to 100 (0 no effect, 100 complete control), read-out: Lambsquarters plant response rating
[11] = pre-emergence, Preemergence, scale 0 to 100, 0 no effect, 100 complete control, read-out: Plant response rating, Lambsquarters
[12] = pre-emergence, Preemergence, scale 0 to 100, read-out: Plant response rating, Lambsquarters
[13] = post-emergence, Postemergence, scale 0 to 100 (0 no effect, 100 complete control), read-out: Foxtail, Giant plant response rating
[14] = pre-emergence, Preemergence, scale 0 to 100, 0 no effect, 100 complete control, read-out: Plant response rating, Foxtail, Giant
[15] = pre-emergence, Preemergence, scale 0 to 100, read-out: Plant response rating, Foxtail, Giant
[16] = post-emergence, Postemergence, scale 0 to 100 (0 no effect, 100 complete control), read-out: Soybean plant response rating
[17] = pre-emergence, Preemergence, scale 0 to 100, 0 no effect, 100 complete control, read-out: Plant response rating, Soybean
[18] = pre-emergence, Preemergence, scale 0 to 100, read-out: Plant response rating, Soybean
[19] = post-emergence, Postemergence, scale 0 to 100 (0 no effect, 100 complete control), read-out: Surinam Grass plant response rating
[20] = pre-emergence, Preemergence, scale 0 to 100, 0 no effect, 100 complete control, read-out: Plant response rating, Surinam Grass
[21] = pre-emergence, Preemergence, scale 0 to 100, read-out: Plant response rating, Surinam Grass

`COC(=O)c1nc(C2CC2)nc(N)c1Br` [Compound 2, methyl 6-amino-5-bromo-2-cyclopropyl-4-pyrimidinecarboxylate] was tested, and the pest or weed control at 31 g/ha ([1]; post-emergence, Postemergence, read-out: Plant response rating (scale of 0 to 100), Kochia) was 85%, the pest or weed control at 62 g/ha [1, 7] was 95% and the pest or weed control at 125 g/ha [1, 7] was 95%. For the same compound, the pest or weed control at 250 g/ha ([1]; post-emergence, Postemergence, scale 0 to 100, read-out: Plant response rating, Kochia) was 100%, the pest or weed control at 31 g/ha [1, 8] was 75% and the pest or weed control at 62 g/ha [1, 8] was 90%. It also gave a pest or weed control at 125 g/ha [1, 9] of 95%, a pest or weed control at 250 g/ha [1, 9] of 100% and a pest or weed control at 31 g/ha ([2]; post-emergence, Postemergence, read-out: Plant response rating (scale of 0 to 100), Lambsquarters) of 100%. The pest or weed control at 62 g/ha [2, 10] was 100%, the pest or weed control at 125 g/ha [2, 10] was 100% and the pest or weed control at 250 g/ha ([2]; post-emergence, Postemergence, scale 0 to 100, read-out: Plant response rating, Lambsquarters) was 100%. The pest or weed control at 31 g/ha [2, 11] was 90%, the pest or weed control at 62 g/ha [2, 11] was 100% and the pest or weed control at 125 g/ha [2, 12] was 100%. The pest or weed control at 250 g/ha [2, 12] was 100%, the pest or weed control at 125 g/ha [3, 13] was 65% and the pest or weed control at 31 g/ha ([3]; post-emergence, Postemergence, read-out: Plant response rating (scale of 0 to 100), Foxtail, Giant) was 0%. It also gave a pest or weed control at 62 g/ha [3, 13] of 35%, a pest or weed control at 250 g/ha ([3]; post-emergence, Postemergence, scale 0 to 100, read-out: Plant response rating, Foxtail, Giant) of 70% and a pest or weed control at 31 g/ha [3, 14] of 0%. The pest or weed control at 62 g/ha [3, 14] was 0%, the pest or weed control at 125 g/ha [3, 15] was 0% and the pest or weed control at 250 g/ha [3, 15] was 30%. The plant injury at 31 g/ha ([4]; post-emergence, Postemergence, read-out: Plant response rating (scale of 0 to 100), Soybean) was 100%, the plant injury at 62 g/ha [4, 16] was 100% and the plant injury at 125 g/ha [4, 16] was 100%. The plant injury at 250 g/ha ([4]; post-emergence, Postemergence, scale 0 to 100, read-out: Plant response rating, Soybean) was 100%, the plant injury at 31 g/ha [4, 17] was 15% and the plant injury at 62 g/ha [4, 17] was 75%. For the same compound, the plant injury at 125 g/ha [4, 18] was 90%, the plant injury at 250 g/ha [4, 18] was 100% and the pest or weed control at 125 g/ha [5, 19] was 65%. It also gave a pest or weed control at 31 g/ha ([5]; post-emergence, Postemergence, read-out: Plant response rating (scale of 0 to 100), Surinam Grass) of 0%, a pest or weed control at 62 g/ha [5, 19] of 55% and a pest or weed control at 250 g/ha ([5]; post-emergence, Postemergence, scale 0 to 100, read-out: Plant response rating, Surinam Grass) of 70%. The pest or weed control at 31 g/ha [5, 20] was 0%, the pest or weed control at 62 g/ha [5, 20] was 0% and the pest or weed control at 125 g/ha [5, 21] was 0%. For the same compound, the pest or weed control at 250 g/ha [5, 21] was 0%, the pest or weed control at 31 g/ha ([6]; 31 g ai/ha, read-out: Plant response rating (scale of 0 to 100), Johnsongrass) was 0% and the pest or weed control at 62 g/ha ([6]; 62 g ai/ha, scale 0 to 100 (0 no effect, 100 complete control), read-out: Johnsongrass plant response rating) was 0%. The pest or weed control at 125 g/ha ([6]; 125 g ai/ha, scale 0 to 100 (0 no effect, 100 complete control), read-out: Johnsongrass plant response rating) was 25%.
